The structures appear in SMILES notation.

The record followed here is US20260001893A1, “SMALL MOLECULE MODULATORS OF STAT6” (Gilead Sciences, Inc., priority 2024, published 2026).

The target of this test is T1, Human STAT6 (truncated, aa122-658, with N-terminal His-tag) (Homo sapiens, UniProt P42226).
T1 construct: Human STAT6 (truncated, aa122-658, with N-terminal His-tag, expressed in insect cells); His-tag (N); made in house; host or cells: insect cells
T1 sequence (P42226 122-658): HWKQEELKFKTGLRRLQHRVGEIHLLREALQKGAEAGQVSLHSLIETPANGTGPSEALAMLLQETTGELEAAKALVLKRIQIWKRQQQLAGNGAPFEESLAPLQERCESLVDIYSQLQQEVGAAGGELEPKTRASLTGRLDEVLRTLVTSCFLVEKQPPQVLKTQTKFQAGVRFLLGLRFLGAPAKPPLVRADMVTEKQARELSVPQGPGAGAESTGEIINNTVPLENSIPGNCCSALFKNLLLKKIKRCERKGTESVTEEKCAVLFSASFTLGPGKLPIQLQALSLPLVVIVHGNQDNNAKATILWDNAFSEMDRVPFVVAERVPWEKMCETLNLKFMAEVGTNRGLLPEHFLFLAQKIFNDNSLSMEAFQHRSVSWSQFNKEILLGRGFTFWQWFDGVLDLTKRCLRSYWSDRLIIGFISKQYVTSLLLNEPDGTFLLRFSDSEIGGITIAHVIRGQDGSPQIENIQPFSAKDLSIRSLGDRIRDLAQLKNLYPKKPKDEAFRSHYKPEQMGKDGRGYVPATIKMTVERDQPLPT
The test is described as follows: Surface plasmon resonance (SPR) assay, binding to human STAT6. The following applies: Biacore 8K, 25° C, immobilized human STAT6 on CM5 chip, multi-cycle kinetics; geometric mean. As for the experimental part: Surface Plasmon Resonance Assay
Biacore instruments from the 8K-series (Cytiva) were used, and measurements were performed at 25° C. Human STAT6 (truncated, aa122-658, with N-terminal His-tag, expressed in insect cells) was immobilized in the active flow cells on a CM5 chip using amine-coupling (default settings) at 10 μg/ml in 10 mM acetate buffer pH 5.5, at a contact time of 120-420 sec. and a flow rate of 10 μl/min. Reference flow cells were deactivated using blank immobilization. PBS-P+(Cytiva) supplemented with 2% DMSO was used as running buffer, and solvent correction was applied. Compounds were tested by multi-cycle kinetics injections using a contact time of 60 sec., dissociation time of up to 300 sec., and a flow rate of 30 μl/min.
Solvent-corrected, reference-subtracted and blank-corrected data was processed and binding isotherms were fitted according to a single report point from each sensorgram (Standard: Late binding (5 sec. before injection end); alternative: Earlier report point according to binding profile). Data fitting was done both with unfixed Rmax and with Rmax fixed to the theoretical value* assuming 1:1 binding to allow processing of data from both weak and strong binders as well as to evaluate binding stoichiometry.
Positive controls were run at the beginning, during, and at the end of the screen to evaluate surface activity.
*Equation for calculation of the theoretical Rmax(Theoretical Rmax=(MW Analyte/MW Ligand)×immobilization level).

The compound `CN(C)C(=O)c1ccc(C2CCN(Cc3cc4c(-n5ccc(N)c(C6CC6)c5=O)ccnc4n3C)CC2)cc1` [Example 1d28, 4-[1-[[4-(4-Amino-3-cyclo-propyl-2-oxo-1-pyridyl)-1-methyl-pyrrolo[2,3-b]pyridin-2-yl]methyl]-4-piperidyl]-N,N-dimethyl-benzamide] came in with a Kd of 76.4 nM. That is a double-digit nanomolar value.

Turning to `CNc1ccn(-c2ccnc3c2cc(CN2CCC(c4ccc(C(=O)N(C)C)cc4)C(F)(F)C2)n3C)c(=O)c1` (single isomer, unassigned) [Example 1f2], binding was characterised by a dissociation constant (Kd) of 81.3 nM.

`CN(C)C(=O)c1ccc(C2CCN(Cc3cc4c(-n5ccc(NCc6ccc(Cl)cc6)cc5=O)ccnc4n3C)CC2)cc1` [Example 1d13, 4-[1-[[4-[4-[(4-Chlorophenyl)methylamino]-2-oxo-1-pyridyl]-1-methyl-pyrrolo[2,3-b]pyridin-2-yl]methyl]-4-piperidyl]-N,N-dimethyl-benzamide] yielded a Kd of 49 nM.

`CNc1ccn(-c2ccnc3c2cc(CN2CC[C@H](c4ccc(C(=O)N(C)C)cc4)[C@H](F)C2)n3C)c(=O)c1` (single isomer, unassigned) [Example 1f6] yielded a Kd of 67.5 nM. This Kd and that of the compound before are within 1.5-fold of each other. With `CNc1ccn(-c2ccnc3c2cc(CN2CCN(c4ccc(C(=O)N(C)C)cc4)CC2)n3C)c(=O)c1` [Example 1m3, N,N-Dimethyl-4-(4-((1-methyl-4-(4-(methylamino)-2-oxopyridin-1 (2H)-yl)-1H-pyrrolo[2,3-b]pyridin-2-yl)methyl)piperazin-1-yl)benzamide] the figure was 244 nM. Turning to `CNc1cc(=O)n(-c2ccnc3c2cc(CN2CCC(c4ccc(C(=O)N(C)C)cc4)CC2)n3C)cn1` [Example 1ac1, N,N-Dimethyl-4-(1-((1-methyl-4-(4-(methylamino)-6-oxopyrimidin-1 (6H)-yl)-1H-pyrrolo[2,3-b]pyridin-2-yl)methyl)piperidin-4-yl)benzamide], the Kd was 4090 nM. Compound `CN(C)C(=O)c1ccc(C2CCN(Cc3cc4c(-n5c(F)c(Cl)c(N)c(Cl)c5=O)ccnc4n3C)CC2)cc1` [Example 1d17, 4-[1-[[4-(4-Amino-3,5-dichloro-2-fluoro-6-oxo-1-pyridyl)-1-methyl-pyrrolo[2,3-b]pyridin-2-yl]methyl]-4-piperidyl]-N,N-methyl-benzamide] registered a Kd of 6620 nM. With `CN(C)C(=O)c1ccc(C2CCN(Cc3cc4c(-n5ccc6c(c5=O)CCCN6)ccnc4n3C)CC2)cc1` [Example 1d35, N,N-Dimethyl-4-[1-[[1-methyl-4-(5-oxo-1,2,3,4-tetrahydro-1,6-naphthyridin-6-yl)pyrrolo[2,3-b]pyridin-2-yl]methyl]-4-piperidyl]benzamide] the figure was 25.1 nM; with `[2H]C([2H])([2H])N(C(=O)c1ccc(C2CCN(Cc3cc4c(-n5ccc(NC)cc5=O)ccnc4n3C)CC2)c(C)c1)C([2H])([2H])[2H]` [Example 1d26, 3-Methyl-4-[1-[[1-methyl-4-[4-(methylamino)-2-oxo-1-pyridyl]pyrrolo[2,3-b]pyridin-2-yl]methyl]-4-piperidyl]-N,N-bis(trideuteriomethyl)benzamide], 69.7 nM.

As to `CNc1ccn(-c2ccnc3c2cc(CN2CCC(F)(c4ccc(C(=O)N(C)C)cc4)CC2)n3C)c(=O)c1` [Example 1f5, 4-[4-Fluoro-1-[[1-methyl-4-[4-(methylamino)-2-oxo-1-pyridyl]pyrrolo-[2,3-b]pyridin-2-yl]methyl]-4-piperidyl]-N,N-dimethyl-benzamide], the Kd came to 156 nM. This Kd lies about 2.2-fold higher than the previous one. With `CCOC(=O)Nc1ccn(-c2ccnc3c2cc(CN2CCC(c4ccc(C(=O)N(C)C)cc4)CC2)n3C)c(=O)c1` [Example 1d5, Ethyl N-[1-[2-[[4-[4-(dimethylcarbamoyl)phenyl]-1-piperidyl]methyl]-1-methyl-pyrrolo[2,3-b]pyridin-4-yl]-2-oxo-4-pyridyl]carbamate] the figure was 178 nM; with `CNc1ccn(-c2ccnc3c2cc(C(C)N2CCC(c4ccc(C(=O)N(C)C)cc4)CC2)n3C)c(=O)c1` (stereo not drawn) [Example 1m71, N,N-dimethyl-4-(1-(1-(1-methyl-4-(4-(methylamino)-2-oxopyridin-1 (2H)-yl)-1H-pyrrolo[2,3-b]pyridin-2-yl)ethyl)piperidin-4-yl)benzamide], 16.4 nM. The value for `CNc1ccn(-c2ccnc3c2cc(CN2CCN(c4ccc(C(=O)N(C)C)cc4)C[C@H]2C)n3C)c(=O)c1` [Example 1m2, (R)—N,N-Dimethyl-4-(3-methyl-4-((1-methyl-4-(4-(methylamino)-2-oxopyridin-1 (2H)-yl)-1H-pyrrolo[2,3-b]pyridin-2-yl)methyl)piperazin-1-yl)benzamide] was 188 nM; that for `CNc1ccn(-c2ccnc3c2cc(CN2CCN(c4ccc(C(=O)N(C)C)cc4)C[C@@H]2C)n3C)c(=O)c1` [Example 1m1, (S)—N,N-dimethyl-4-(3-methyl-4-((1-methyl-4-(4-(methylamino)-2-oxopyridin-1 (2H)-yl)-1H-pyrrolo[2,3-b]pyridin-2-yl)methyl)piperazin-1-yl)benzamide] was 58.6 nM. With `CNc1ccn(-c2ccnc3c2cc([C@H](C)N2CCC(c4ccc(C(=O)N(C)C)cc4)CC2)n3C)c(=O)c1` (single isomer, unassigned) [Example 1m72] the figure was 338 nM; with `COC(=O)Nc1ccn(-c2ccnc3c2cc(CN2CCC(c4ccc(C(=O)N(C)C)cc4)CC2)n3C)c(=O)c1` [Example 1d6, Methyl N-[1-[2-[[4-[4-(dimethylcarbamoyl)phenyl]-1-piperidyl]methyl]-1-methyl-pyrrolo[2,3-b]pyridin-4-yl]-2-oxo-4-pyridyl]carbamate], 152 nM.

On to `CN(C)C(=O)c1ccc(C2CCN(Cc3cc4c(-n5ccc(NC6CC6)cc5=O)ccnc4n3C)CC2)cc1` [Example 1d15, 4-[1-[[4-[4-(cyclo-Propylamino)-2-oxo-1-pyridyl]-1-methyl-pyrrolo[2,3-b]pyridin-2-yl]methyl]-4-piperidyl]-N,N-dimethyl-benzamide], for which the affinity, expressed as Kd, was 112 nM.

In the case of `CCN(CC)C(=O)c1ccc(C2CCN(Cc3cc4c(-n5ccc(NC)cc5=O)ccnc4n3C)CC2)cc1` [Example 1d10, N,N-Diethyl-4-[1-[[1-methyl-4-[4-(methylamino)-2-oxo-1-pyridyl]pyrrolo[2,3-b]pyridin-2-yl]methyl]-4-piperidyl]benzamide], the affinity, expressed as Kd, was 22.8 nM. Consider `CNc1ccn(-c2ccnc3c2cc(CN2CCC(c4ccc(C(=O)N(C)C)cc4C(F)(F)F)CC2)n3C)c(=O)c1` [Example 1d38, N,N-Dimethyl-4-[1-[[1-methyl-4-[4-(methylamino)-2-oxo-1-pyridyl]pyrrolo[2,3-b]pyridin-2-yl]methyl]-4-piperidyl]-3-(trifluoromethyl)benzamide], for which the Kd amounted to 570 nM. Compared with the last compound, the Kd is about 25-fold higher. Compound `CNc1ccn(-c2ccnc3c2cc(CN2CC=C(c4ccc(C(=O)N(C)C)cn4)CC2)n3C)c(=O)c1` [Example 1m13, N,N-Dimethyl-1′-((1-methyl-4-(4-(methylamino)-2-oxopyridin-1 (2H)-yl)-1H-pyrrolo[2,3-b]pyridin-2-yl)methyl)-1′, 2′, 3′, 6′-tetrahydro-[2,4′-bipyridine]-5-carboxamide] came in with a Kd of 167 nM. The value for `CN(C)C(=O)c1ccc(C2CCN(Cc3cc4c(-n5ncc(N)cc5=O)ccnc4n3C)CC2)cc1` [Example 1ab4, 4-(1-((4-(4-Amino-6-oxopyridazin-1 (6H)-yl)-1-methyl-1H-pyrrolo[2,3-b]pyridin-2-yl)methyl)piperidin-4-yl)-N,N-dimethylbenzamide] was 224 nM.
